Laboratory results published in patent publication US8815831B2, “Treatment of Acinetobacter with alginate oligomers and antibiotics” (priority 2009, dated 2014).

Legend:
[1] = test system: Staphylococcus aureus NCTC 6571 MIC CONTROL STRAIN (Oxford Staph.); test: Minimum Inhibitory Concentration assay (96-well, CAMHB), Example 1; assay type: cell-based; settings: S. Aur
[2] = test system: Multidrug resistant Acinetobacter baumannii isolated from a source in Libya; test: Minimum Inhibitory Concentration assay (96-well, CAMHB), Examples 1 and 2
Experimental: Antibiotics were diluted in cation-adjusted Mueller-Hinton broth (CAMHB) or CAMHB with G-fragments (Oligo CF-5/20 90-95% G residues) at 2%, 6% or 10%.
Bacterial cultures at 0.5 McFarland standard were diluted ten-fold in CAMHB and 5 μl added to the microtiter plates containing the antibiotic serial dilutions. Plates were wrapped in parafilm and incubated at 37° C. for 16-20 hours. MIC values for each antibiotic were determined as the lowest concentration at which there was no visible growth.

[3] = test system: Acinetobacter strains; test: MIC assays of Example 3, Tables 3 and 4 taken together; assay type: cell-based, Acinetobacter baumannii and Acinetobacter Iwoffii; settings: in one Acinetobacter strain or another
Experimental: (§1) MIC assays as described in Example 1 were conducted using the following Acinetobacter strains, antibiotics and concentrations of OligoCF-5/20 as described in Tables 3 and 4.
(§2) • V19* 7789 Acinetobacter baumannii • V20* 8065 Acinetobacter Iwoffii MDR Strains • V4* MDR ACB (Libya) Acinetobacter baumannii • V9* (Egypt) Acinetobacter baumannii • V10* (Egypt) Acinetobacter Iwoffii • V22* 6056 Acinetobacter Iwoffii
Further MIC assays were conducted with the various strains and antibiotics recited in Table 4 using the following protocol.

[4] = test system: Acinetobacter baumannii strains V9, V19; test: MIC assays as described in Example 1, Example 3 (Table 3); assay type: cell-based; settings: strain V19
Experimental: as §1, §2

[5] = +2% G (G-fragments Oligo CF-5/20)
[6] = +6% G (G-fragments Oligo CF-5/20)
[7] = +10% G (G-fragments Oligo CF-5/20)
[8] = A. bau, +2% G (G-fragments Oligo CF-5/20)
[9] = A. bau, +6% G (G-fragments Oligo CF-5/20)
[10] = A. bau, +10% G (G-fragments Oligo CF-5/20)

## CC[C@H]1OC(=O)[C@H](C)[C@@H](O[C@H]2C[C@@](C)(OC)[C@@H](O)[C@H](C)O2)[C@H](C)[C@@H](O[C@@H]2O[C@H](C)C[C@H](N(C)C)[C@H]2O)[C@](C)(O)C[C@@H](C)CN(C)[C@H](C)[C@@H](O)[C@]1(C)O [azithromycin]
[1]; 0 G (no G-fragments)
  MIC value, Ceftazidime with azithromycin at 4 μg/ml: <4 μg/ml Az
  MIC value, Ceftazidime with azithromycin at 8 μg/ml: <8 μg/ml Az
  MIC value, Ciprofloxacin with azithromycin at 4 μg/ml: <4 μg/ml Az
  MIC value, Ciprofloxacin with azithromycin at 8 μg/ml: <8 μg/ml Az
[1]; [5]
  MIC value, Ceftazidime with azithromycin at 4 μg/ml: <4 μg/ml Az
  MIC value, Ceftazidime with azithromycin at 8 μg/ml: <8 μg/ml Az
  MIC value, Ciprofloxacin with azithromycin at 4 μg/ml: <4 μg/ml Az
  MIC value, Ciprofloxacin with azithromycin at 8 μg/ml: <8 μg/ml Az
[1]; [6]
  MIC value, Ceftazidime with azithromycin at 4 μg/ml: <4 μg/ml Az
  MIC value, Ceftazidime with azithromycin at 8 μg/ml: <8 μg/ml Az
  MIC value, Ciprofloxacin with azithromycin at 4 μg/ml: <4 μg/ml Az
  MIC value, Ciprofloxacin with azithromycin at 8 μg/ml: <8 μg/ml Az
[1]; [7]
  MIC value, Ceftazidime with azithromycin at 4 μg/ml: <4 μg/ml Az
  MIC value, Ceftazidime with azithromycin at 8 μg/ml: <8 μg/ml Az
  MIC value, Ciprofloxacin with azithromycin at 4 μg/ml: <4 μg/ml Az
  MIC value, Ciprofloxacin with azithromycin at 8 μg/ml: <8 μg/ml Az
[2]; 4 μg/ml azithromycin and 2% or more G-fragments
  inhibition of growth by azithromycin combined with G-fragments: completely inhibited
[2]; [8]
  MIC value, Ceftazidime with azithromycin at 4 μg/ml: <4 μg/ml Az
  MIC value, Ceftazidime with azithromycin at 8 μg/ml: <8 μg/ml Az
  MIC value, Ciprofloxacin with azithromycin at 8 μg/ml: <8 μg/ml Az
[2]; A. bau, +2% G (G-fragments Oligo CF-5/20), together with 64 Cpr
  MIC value, Ciprofloxacin with azithromycin at 4 μg/ml: azithromycin part of the inhibitory combination: 4 µg/mL
[2]; [9]
  MIC value, Ceftazidime with azithromycin at 4 μg/ml: <4 μg/ml Az
  MIC value, Ceftazidime with azithromycin at 8 μg/ml: <8 μg/ml Az
  MIC value, Ciprofloxacin with azithromycin at 4 μg/ml: <4 μg/ml Az
  MIC value, Ciprofloxacin with azithromycin at 8 μg/ml: <8 μg/ml Az
[2]; [10]
  MIC value, Ceftazidime with azithromycin at 4 μg/ml: <4 μg/ml Az
  MIC value, Ceftazidime with azithromycin at 8 μg/ml: <8 μg/ml Az
  MIC value, Ciprofloxacin with azithromycin at 4 μg/ml: <4 μg/ml Az
  MIC value, Ciprofloxacin with azithromycin at 8 μg/ml: <8 μg/ml Az
[2]; Acinetobacter organism, azithromycin 8 or 4 μg/ml
  effect of OligoCF-5/20 on the MIC value for azithromycin: greatly reduces
[2]; azithromycin at 4 μg/ml and at 8 μg/ml, no G-fragments
  inhibition of growth by azithromycin in the absence of G-fragments: not capable of inhibiting growth
[3]
  effect of increasing concentrations of OligoCF-5/20 (0-10%) on MIC values (Tables 3 and 4): decreases MIC values

## C[C@@H](O)[C@H]1C(=O)N2C(C(=O)O)=C(SCCN=CN)C[C@H]12 [imipenem]
[4]
  effect of increasing concentrations of OligoCF-5/20 on MIC values (Table 3): no effect

## CC[C@H]1OC(=O)[C@H](C)[C@@H](O[C@H]2C[C@@](C)(OC)[C@@H](O)[C@H](C)O2)[C@H](C)[C@@H](O[C@@H]2O[C@H](C)C[C@H](N(C)C)[C@H]2O)[C@](C)(O)C[C@@H](C)/C(=N\OCOCCOC)[C@H](C)[C@@H](O)[C@]1(C)O [roxithromycin]
[3]
  effect of increasing concentrations of OligoCF-5/20 (0-10%) on MIC values (Tables 3 and 4): decreases MIC values
